In patent US20090269281A1, “Calcium/Calmodulin-Dependent Protein Kinase Kinase as a Control Point for Cardiac Hypertrophy” (University of North Texas Health Science Center at Fort …, priority 2007, published 2009):
Entries after “also recorded” stand apart in the source; their conditions may differ.

Experiments:
UIIR = UIIR expression in cardiomyocytes treated with hypertrophic agonists (RT-PCR, western blot); assay type: cell-based, rat; conditions: for UIIR mRNA expression: 10 μM PE or 100 nM AngII for 24 hours, RT-PCR; for UIIR protein expression: PE or AngII, western blot
Description: Cardiomyocytes were cultured in medium containing 0.2% FBS and either PE (10 μM) or AngII (100 nM) for 48 hours. Total RNA was isolated and reverse transcribed. cDNA was used as template to amplify UIIR. […] Cardiomyocytes were cultured in medium containing 0.2% FBS and either PE (10 μM) or AngII (100 nM) for 48 hours. Total protein was isolated and UIIR detected by western blot.
Expression of UIIR in myocytes treated with hypertrophic agonists. In order to validate the array data, we designed PCR primers to amplify UIIR. Cardiomyocyte cultures were treated with 10 μM PE or 100 nM AngII for 24 hours and total RNA was extracted following the Trizol protocol (Invitrogen). Total RNA was then used for template for reverse transcription. The cDNA generated from the RT reaction was then used as template to amplify UIIR and GAPDH as control.
To this end, we stimulated cardiomyocyte cultures with AngII and PE as before and isolated total protein. The total protein was resolved by PAGE (12% acrylamide), transferred to nitrocellulose, and blotted for UIIR using a specific antibody.

[1] = system: ANF, SkA and MEF2 reporters; assay: UII-stimulated ANF, SkA and MEF2 luciferase reporter assay in cardiomyocytes; assay type: cell-based, rat; conditions: AdUIIR-infected cardiomyocytes; inhibitor 1 h prior to UII 100 nM; STO-609 250 ng/mL, SB203580 10 μM, U0126 10 μM, AKTi 5 μM
Description: (§1) Cell Culture and Treatments. […] Plasmids and Adenoviral Constructs.
Transient Transfection and Luciferase Assay.

[2] = system: ANF, SkA and MEF2 reporters; conditions: cardiomyocytes co-transfected with CaMKI; SB203580 10 μM or U0126 10 μM
Description: Cell Culture and Treatments. Cardiomyocytes were isolated from 2-4 day old Sprague-Dawley rats using the neonatal cardiomyocyte isolation system (Worthington Biolabs) based on a previously described protocol (45). Cells were plated in medium 199 supplemented with 10% fetal bovine serum (FBS, Atlanta Biologicals) and gentamycin (Fisher). Cells were maintained in medium 199 supplemented with 1.0% FBS and gentamycin. Prior to any treatment, cardiomyocyte cultures were incubated in medium 199 containing 0.2% serum for 24 hours. […] Cells were incubated in medium 199 containing 0.2% FBS prior to stimulation with the indicated reagents for reporter assays, RT-PCR, western blotting and immunoprecipitation.
Transient Transfection and Luciferase Assay. For transfections, cardiomyocytes were cultured in 12-well tissue culture plates as described. Once cultures were incubated in medium 199 with 0.2% serum for 24 hours, cultures were either infected with AdUIIR as described or were just transfected. […] Cardiomyocyte cultures were harvested 24-72 hours post treatment (per sample) and luciferase activity was determined by luminometry (Model TD 20/20 Luminometer, Turner Designs, Sunnyvale, Calif.) using a commercially available kit (Luciferase Substrate, Promega, Madison, Wis.).

[3] = system: HDAC5/14-3-3β association; assay: Immunoprecipitation of 14-3-3β and detection of bound HDAC5 in cardiomyocytes; assay type: cell-based, rat; conditions: AdUIIR-infected cardiomyocytes; inhibitor 1 h prior to UII, 60 min
Description: as §1
For immunoprecipitation studies, Cardiomyocytes were cultured in 100-mm as described in the previous section. 24 h post-plating, cells were treated with UII and various pharmacological inhibitors as indictated. Following treatment, 14-3-3β was immunoprecipitated from whole cell lysate using a commercially available antibody (Abcam) and a protein G immunoprecipitation kit (IP50 Kit, Sigma, following manufacturer's protocol). HDAC5 was detected using a commercially-available antibody (Cell Signaling Technologies, Inc.).
UII stimulation induces association of HDAC5 with 14-3-3β in a CaMKK dependent manner. The activity of MEF2 is controlled, in part, by its association with class II HDACs in the nucleus. Class II HDACs repress the activity of MEF2-sensitive promoters by local deacetylation of nucleosomal histones causing the condensation of chromatin. The repressive influence of HDACs on MEF2 can be relieved by CaMK-dependent phosphorylation of HDACs, which results in their dissociation from MEF2. The dissociation of HDACs from MEF2 is accompanied by 14-3-3-mediated nuclear export of the HDACs. We have shown that UII stimulates the activity of MEF2. Next, to determine whether UII stimulates HDAC5 association with 14-3-3β, AdUIIR-infected cardiomyocytes were treated with UII for various times up to 60 min, and 14-3-3β was pulled down from the whole cell lysate by using an antibody specific for 14-3-3β and protein G agarose. HDAC5 was detected using a specific antibody.

PKC = conditions: cited from earlier work
ERK1/2 = assay: Western blot of AngII or Et-1 stimulated ERK1/2 phosphorylation in cardiomyocytes; assay type: cell-based, rat; conditions: AngII 100 nM or Et-1 10 nM for 10 min; STO-609 250 ng/mL
Description: (§2) Whole cell lysates were subjected to Western blotting to determine the relative change in phosphorylation of ERK1/2 (FIG. 7A) or PKD (FIG. 7B). Western Blot Analysis and Immunoprecipitations. […] Following treatment, cells were lysed, and the relative abundance of UIIR, active p38 and ERK1/2, and active PKD was determined with commercially-available antibodies (Alpha Diagnostic, and Cell Signaling Technologies, Inc., respectively). The antibody for CaMKI was obtained from T. Soderling (Vollum Institute, Oregon Health Sciences University, Portland Oreg.).

PKA = conditions: cited from earlier work
CaM-KI = CaM-KI (Homo sapiens, UniProt Q14012); conditions: cited from earlier work
Sequence of CaM-KI (Q14012 whole entry, species assumed): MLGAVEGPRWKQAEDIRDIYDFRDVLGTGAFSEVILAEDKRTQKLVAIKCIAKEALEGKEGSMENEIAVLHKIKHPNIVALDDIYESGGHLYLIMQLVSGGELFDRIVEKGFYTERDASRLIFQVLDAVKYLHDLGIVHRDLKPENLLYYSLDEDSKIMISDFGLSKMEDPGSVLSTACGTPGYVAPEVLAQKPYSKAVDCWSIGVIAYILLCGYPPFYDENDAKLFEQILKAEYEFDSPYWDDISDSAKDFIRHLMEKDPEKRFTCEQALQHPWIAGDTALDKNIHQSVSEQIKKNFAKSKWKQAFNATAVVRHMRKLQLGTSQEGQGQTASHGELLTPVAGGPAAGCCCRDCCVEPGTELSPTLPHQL

p38 and ERK1/2 = assay: Western blot of p38 and ERK1/2 phosphorylation in cardiomyocytes; assay type: cell-based, rat; conditions: AdUIIR-infected cardiomyocytes; UII with STO-609 for 5 min
Description: as §1
(§3) Western Blot Analysis and Immunoprecipitations. Cardiomyocytes were cultured in 100-mm dishes as described in the previous section. 24 h post-plating, cells were treated with UII and various pharmacological inhibitors as indicated. Following treatment, cells were lysed, and the relative abundance of UIIR, active p38 and ERK1/2, and active PKD was determined with commercially-available antibodies (Alpha Diagnostic, and Cell Signaling Technologies, Inc., respectively). The antibody for CaMKI was obtained from T. Soderling (Vollum Institute, Oregon Health Sciences University, Portland Oreg.).
UII-dependent activation of p38 and ERK1/2 requires CaMKK. MAP kinases play an important role in mediating intracellular signaling. They are involved in cellular processes such as hypertrophy (7-10, 53, 54). More interesting, cross talk has been reported between the CaMKs and the MAPKs in neurons (11). There are three distinct families of MAP kinases (ERKs, p38s, and JNKs)(55). […] Next, whether UII stimulation of the MAP kinases was dependent on CaMKK was determined. AdUIIR-infected cardiomyocyte cultures were treated with UII for various times up to 60 min, and the phosphorylation status of p38 and ERK MAPKs were measured by Western blot analysis using antibodies that detect the active (phosphorylated) forms of these kinases.

p42 MAP kinase = p42 MAP kinase (Homo sapiens, UniProt P28482); conditions: cited from earlier work
Sequence of p42 MAP kinase (P28482 whole entry): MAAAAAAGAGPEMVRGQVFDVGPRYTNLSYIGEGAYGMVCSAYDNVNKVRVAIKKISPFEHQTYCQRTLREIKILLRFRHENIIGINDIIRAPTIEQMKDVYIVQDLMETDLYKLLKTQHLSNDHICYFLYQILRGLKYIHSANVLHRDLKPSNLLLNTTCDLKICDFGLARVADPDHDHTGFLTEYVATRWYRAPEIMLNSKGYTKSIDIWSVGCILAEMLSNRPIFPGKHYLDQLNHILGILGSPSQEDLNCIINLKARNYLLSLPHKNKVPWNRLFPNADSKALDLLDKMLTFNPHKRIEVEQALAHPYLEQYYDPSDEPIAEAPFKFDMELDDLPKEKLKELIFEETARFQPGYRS

CaMKKa = CaMKKa (Rattus norvegicus, UniProt P97756); conditions: cited from earlier work
Sequence of CaMKKa (P97756 whole entry): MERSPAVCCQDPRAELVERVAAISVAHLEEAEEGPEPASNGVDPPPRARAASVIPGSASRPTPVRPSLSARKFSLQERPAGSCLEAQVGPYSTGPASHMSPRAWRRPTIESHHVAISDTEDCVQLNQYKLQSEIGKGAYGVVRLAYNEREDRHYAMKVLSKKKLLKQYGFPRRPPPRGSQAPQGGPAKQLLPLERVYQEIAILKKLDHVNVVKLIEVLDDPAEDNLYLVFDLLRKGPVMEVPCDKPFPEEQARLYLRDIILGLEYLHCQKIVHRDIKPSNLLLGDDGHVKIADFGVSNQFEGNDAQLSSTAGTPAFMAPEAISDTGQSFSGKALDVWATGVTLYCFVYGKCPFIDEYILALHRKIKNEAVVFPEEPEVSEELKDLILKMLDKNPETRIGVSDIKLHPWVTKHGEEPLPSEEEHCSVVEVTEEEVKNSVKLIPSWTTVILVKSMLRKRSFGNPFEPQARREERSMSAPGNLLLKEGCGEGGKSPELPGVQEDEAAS

PKD [4] = assay: Western blot of AngII or Et-1 stimulated PKD phosphorylation in cardiomyocytes; assay type: cell-based, rat; conditions: AngII 100 nM or Et-1 10 nM for 10 min; STO-609 250 ng/mL
Description: as §2

CaMKI = assay: Western blot of CaMKI phosphorylation (phospho-Thr178) in cardiomyocytes; assay type: cell-based, rat; conditions: AdUIIR-infected cardiomyocytes; UII with STO-609 for 2 or 5 min
Description: as §1, §3
UII stimulation results in the activation of CaMKI. […] One of the major downstream effectors of CaMKK is CaMKI. In addition to calcium/calmodulin, CaMKI requires phosphorylation by CaMKK to be active. To determine whether UII activates CaMKI, AdUIIR-infected cardiomyocyte cultures were treated with UII for various times up to 60 min, and whole cell lysates were collected and the phosphorylation status of CaMKI was measured by Western blot analysis by using an antibody that recognizes the active form of CaMKI (phospho-Thr178). […] CaMKI remained phosphorylated and active through 60 min of UII stimulation. Thus, UII activates CaMKI in cardiomyocytes.

PKD [5] = assay: Western blot of PKD phosphorylation (phospho-Ser744/748) in cardiomyocytes; assay type: cell-based, rat; conditions: AdUIIR-infected cardiomyocytes; UII with STO-609 for 2 or 5 min
Description: as §1, §3
UII activates PKD in a CaMKK dependent manner. A parallel pathway involving PKD phosphorylatea HDACs resulting in their 14-3-3-dependent translocation […] (19). […] Next, it was determined whether UII stimulation could activate PKD which would account for the UII-induced HDAC5 translocation […] possibly working in conjunction with CaMKI. To determine whether UII activates PKD, AdUIIR-infected cardiomyocyte cultures were treated with UII for various times up to 60 min, and whole cell lysates were collected and the phosphorylation status of PKD was measured by Western blot analysis by using an antibody that recognizes the active form of PKD (phospho-Ser744/748). […]

[6] = system: ANF, BNP, αMHC and SkA mRNA; assay: Semi-quantitative RT-PCR of hypertrophy marker genes in cardiomyocytes; assay type: cell-based, rat; conditions: AdUIIR-infected cardiomyocytes; UII 100 nM, STO-609 250 ng/mL, 48 h
Description: as §1
Reverse Transcription and Semi-quantitative PCR—Cardiomyocytes were cultured in 100-mm dishes at a density of 1×10^5 cells/cm^2. 24 h post-plating, cells were treated as indicated. Following treatment, total RNA was isolated with TRIzol® reagent (Invitrogen) cDNA was synthesized using Super-Script™III (Invitrogen) per the manufacturer's instructions. Semi-quantitative PCR was then performed using gene-specific primers for UIIR, hypertrophy marker genes and glyceraldehyde-3-phosphate dehydrogenase (GAPDH) (Integrated DNA Technologies). Sequences of gene-specific primers were as follows: for UIIR, sense 5′-[…]-3′ (SEQ ID NO: 1) and antisense 5′-[…]-3′ (SEQ ID NO: 2); for ANF, sense 5′-[…]-3′ (SEQ ID NO: 3) and antisense 5′-[…]-3′ (SEQ ID NO: 4); for BNP sense, 5′-[…]-3′ (SEQ ID NO: 5) and anti-sense 5′-[…]-3′ (SEQ ID NO: 6); for αMHC sense, 5′-[…]-3′ (SEQ ID NO: 7) and antisense 5′-[…]-3′ (SEQ ID NO: 8); for SkA sense, 5′-[…]-3′ (SEQ ID NO: 9) and antisense 5′-[…]-3′ (SEQ ID NO: 10); and for GAPDH sense, 5′-[…]-3′ (SEQ ID NO: 11) and antisense 5′-[…]-3′ (SEQ ID NO: 12).

CaM-KIV = target: T1, CaM-KIV (Homo sapiens, UniProt Q16566); conditions: cited from earlier work
T1 sequence (Q16566 1-473): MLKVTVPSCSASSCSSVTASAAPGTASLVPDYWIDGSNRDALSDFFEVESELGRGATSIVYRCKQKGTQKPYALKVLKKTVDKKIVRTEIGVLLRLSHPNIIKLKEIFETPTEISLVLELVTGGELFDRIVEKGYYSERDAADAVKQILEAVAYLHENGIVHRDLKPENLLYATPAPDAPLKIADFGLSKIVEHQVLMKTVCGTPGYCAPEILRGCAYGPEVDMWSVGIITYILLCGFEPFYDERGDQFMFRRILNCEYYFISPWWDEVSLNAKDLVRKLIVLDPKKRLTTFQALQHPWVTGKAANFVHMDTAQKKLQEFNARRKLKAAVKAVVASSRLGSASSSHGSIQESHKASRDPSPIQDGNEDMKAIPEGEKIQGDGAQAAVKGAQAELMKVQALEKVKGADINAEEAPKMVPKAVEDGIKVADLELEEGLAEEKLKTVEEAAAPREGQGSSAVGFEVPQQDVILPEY

Compound	UIIR mRNA expression (UIIR)	UIIR protein expression (UIIR)	effect of inhibitor on UII activation of ANF, SkA and MEF2 reporter luciferase activity [1]	effect of inhibitor on CaMKI activation of ANF, SkA and MEF2 reporter luciferase activity [2]	effect of inhibitor on UII-induced association of HDAC5 with 14-3-3β [3]	further results
CNC[C@H](O)c1cccc(O)c1 [PE, phenylephrine]	up-regulated the UIIR messenger RNA	up-regulation of UIIR				
C[S+]([O-])c1ccc(-c2nc(-c3ccncc3)c(-c3ccc(F)cc3)[nH]2)cc1 (stereo not drawn) [SB203580]			completely blocked	completely blocked	no effect	
O=C(O)c1ccc2c3c1cccc3c(=O)n1c3ccccc3nc21 [STO-609, 7-H-Benz[de]benzimidazo[2,1-a]isoquinoline-7-one-3-carboxylic acid]			completely blocked; also recorded: UII was incapable of stimulating any of the reporters		loss of UII-induced association of HDAC5 with 14-3-3β; also recorded: decreased association of HDAC5 with 14-3-3β	IC50 for PKC (PKC): > 10 µg/mL; effect of inhibitor on AngII and Et-1 activation of ERK1/2 (ERK1/2): CaMKK is required for AngII and Et-1 activation of ERK1/2 and PKD; IC50 for PKA (PKA): > 10 µg/mL; IC50 (CaM-KI): > 31.8 µM; effect of inhibitor on UII-dependent phosphorylation of p38 and ERK1/2 (p38 and ERK1/2): UII was unable to stimulate p38 or ERK1/2; IC50 (p42 MAP kinase): > 31.8 µM; IC50 (CaMKKa): 0.382 µM; effect of inhibitor on AngII and Et-1 activation of PKD (PKD [4]): CaMKK is required for AngII and Et-1 activation of ERK1/2 and PKD; effect of inhibitor on UII-dependent activation (phosphorylation) of CaMKI (CaMKI): UII was unable to stimulate CaMKI; also recorded: inhibited; effect of inhibitor on UII-dependent phosphorylation of PKD (PKD [5]): UII was unable to stimulate PKD; effect of inhibitor on UII-stimulated hypertrophy marker gene mRNA expression (ANF, BNP, αMHC, SkA) [6]: UII was unable to stimulate hypertrophy marker gene expression over control; also recorded: UII was unable to stimulate the expression of ANF, BNP, αMHC or SkA; IC50 (CaM-KIV): > 31.8 µM
N#CC(=C(/N)Sc1ccccc1N)/C(C#N)=C(\N)Sc1ccccc1N [U0126]			completely blocked	completely blocked	loss of UII-induced association of HDAC5 with 14-3-3β; also recorded: reduced UII-dependent association with 14-3-3β	
angiotensin II (DRVYIHPF; Angiotensin-2; UniProt P01019 25-32, looked up) [AngII, humoral hypertrophic agonist acting on the Gq-coupled angiotensin II receptor]	up-regulated the UIIR messenger RNA	up-regulation of UIIR				
